Test results as given in article PMC3504108 (PLoS ONE, 2012).

Experiments:
Sirt3 [1] = target: T1, Sirt3 (Homo sapiens, UniProt Q9NTG7); experiment: ELISA-based deacetylation assay (Figure S3B); assay type: biochemical
T1 sequence (Q9NTG7 102-399): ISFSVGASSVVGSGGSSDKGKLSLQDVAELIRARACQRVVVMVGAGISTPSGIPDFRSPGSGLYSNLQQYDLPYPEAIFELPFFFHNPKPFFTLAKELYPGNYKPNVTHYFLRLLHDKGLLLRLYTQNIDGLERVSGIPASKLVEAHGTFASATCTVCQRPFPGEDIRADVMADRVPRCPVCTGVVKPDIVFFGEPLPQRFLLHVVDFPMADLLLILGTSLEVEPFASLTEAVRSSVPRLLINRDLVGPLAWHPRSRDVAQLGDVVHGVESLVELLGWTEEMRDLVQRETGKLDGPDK

Sirt5 [2] = target: T2, Sirt5 (Homo sapiens, UniProt Q9NXA8); experiment: ELISA-based deacetylation assay (weak inhibition, Figure S3B); assay type: biochemical
T2 construct: catalytic core, residues 34–302
T2 sequence (Q9NXA8 34-302): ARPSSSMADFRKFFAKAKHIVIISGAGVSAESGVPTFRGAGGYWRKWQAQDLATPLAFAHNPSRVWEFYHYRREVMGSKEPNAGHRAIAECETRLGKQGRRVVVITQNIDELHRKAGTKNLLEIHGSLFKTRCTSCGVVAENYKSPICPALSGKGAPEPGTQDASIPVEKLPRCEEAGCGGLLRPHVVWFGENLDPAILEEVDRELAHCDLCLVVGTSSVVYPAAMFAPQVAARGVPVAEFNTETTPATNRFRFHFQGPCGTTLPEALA

Sirt5 [3] = target: T2, Sirt5; experiment: FdL1 fluorogenic deacetylation assay (activation dose-response); assay type: biochemical
Sirt3 [4] = target: T3, Sirt3 (Homo sapiens, UniProt Q9NTG7); experiment: X-ray crystal structure ([…] Å, ternary with FdL1 peptide), plus FdL2 deacetylation inhibition; assay type: binding
T3 construct: catalytic core, residues 118–399
T3 sequence (Q9NTG7 118-399): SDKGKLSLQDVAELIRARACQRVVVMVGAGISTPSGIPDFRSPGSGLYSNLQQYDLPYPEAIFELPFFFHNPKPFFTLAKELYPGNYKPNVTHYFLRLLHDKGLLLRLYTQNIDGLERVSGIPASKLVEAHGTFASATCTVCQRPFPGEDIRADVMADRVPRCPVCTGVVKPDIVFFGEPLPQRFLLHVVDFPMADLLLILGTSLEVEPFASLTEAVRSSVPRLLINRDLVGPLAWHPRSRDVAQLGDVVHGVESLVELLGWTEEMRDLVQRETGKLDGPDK

Sirt5 [5] = target: T2, Sirt5; experiment: X-ray crystal structure ([…] Å, ternary with FdL1 peptide; ligand occupancy […]), plus deacetylase activation assays; assay type: binding
Sirt5 [6] = target: T2, Sirt5; experiment: Cytochrome c deacetylation ELISA (activation, Figure S3A); assay type: biochemical

O=c1c(O)c(-c2ccc(O)c(O)c2)oc2cc(O)ccc12 [fisetin]
ELISA-based deacetylation assay (Figure S3B) (Sirt3 [1]): only fisetin shows a weak inhibitory effect on Sirt5 and significant inhibition of Sirt3 in an ELISA-based deacetylation assay | ELISA-based deacetylation assay (weak inhibition, Figure S3B) (Sirt5 [2]): only fisetin shows a weak inhibitory effect on Sirt5

Oc1cc(O)cc(/C=C/c2ccc(O)c(O)c2)c1 [piceatannol]
EC50 (Sirt5 [3]): 70 ± 20 µM | X-ray crystal structure (2.3 Å, ternary with FdL1 peptide), plus FdL2 deacetylat (Sirt3 [4]): we also solved the crystal structure of Sirt3 in complex with FdL1-peptide and piceatannol

Oc1ccc(/C=C/c2cc(O)cc(O)c2)cc1 [resveratrol]
X-ray crystal structure (2.6 Å, ternary with FdL1 peptide); ligand occupancy ~50% (Sirt5 [5]): Co-ordinates and structure factors of Sirt5 in complex with FdL1-peptide and resveratrol

OCCc1ccc(O)cc1 [tyrosol, 4-(2-hydroxyethyl)phenol]
Cytochrome c deacetylation ELISA (activation, Figure S3A) (Sirt5 [6]): activates Sirt5 in a Cytochrome c deacetylation assay (see below, Figure S3A)
